Reference: paper PMC10461229 (Journal of Medicinal Chemistry, 2023)
Where two headings read alike, the source gives them in different places.

Columns and labels:
[1] = tested on: wild-type (WT) Mtb Erdman; assay: microbe, parasite or virus in culture; assay type: cell-based, Mycobacterium tuberculosis; settings: read-out: MABA mean IC50 ± SD
[2] = tested on: Mtb biofilm formation; assay: microbe, parasite or virus in culture; assay type: cell-based; settings: Mycobacterium tuberculosis, 504 h, read-out: Biofilm inhibition IC50
[3] = tested on: Mtb katG^FS; assay type: cell-based, Mycobacterium tuberculosis
[4] = tested on: H37Rv-GFP Mtb in murine RAW 264.7 macrophages; assay type: cell-based, Mycobacterium tuberculosis
[5] = tested on: murine RAW 264.7 macrophages; assay: Cytotoxicity assay on murine macrophages; assay type: cell-based, mouse; settings: 5 days, total cell number vs DMSO 1%
Experimental: Mouse macrophage RAW 264.7 cells (ATCC # TIB-71) were maintained in RPMI-1640 + GlutaMAX containing 10% heat-inactivated fetal bovine serum (FBS, 10270106, Gibco). Macrophages were harvested using Versene (15040033, LifeTechnologies).
For assay plate preparation, the lead compounds were diluted in DMSO (Sigma-Aldrich) to 10 mg/mL and dispensed in Echo-qualified 384-well low dead volume source plates using the Echo 550 Series Liquid Handler (Labcyte). The compounds were transferred to 384-well clear-bottom polystyrene assay plates (781091, Greiner Bio-One) using acoustic liquid handling technology. All samples were backfilled with DMSO.
The cellular suspension (50 μL containing 20,000 cells) was added to the 384-well assay plate and incubated for 5 days at 37 °C, 5% CO2. Macrophages were then stained with SYTO 60 dye (S11342, Molecular probes), followed by image acquisition and data analysis. Confocal images were recorded on an automated high-content fluorescence microscope (InCell 6500, Cytiva). A series of four pictures of each well were taken, and each image was then analyzed using the Columbus system to infer the total number of cells. Dose–response plots were generated for each compound using GraphPad Prism software.

[6] = tested on: Mtb Erdman; assay type: cell-based, Mycobacterium tuberculosis
[7] = tested on: Calu-3 cells; settings: for Calu-3 LD50: 72 h, CellTiter-Glo, 50% decrease in cellular ATP, IMD salts; for Therapeutic index, LD50 in Calu-3 / MABA IC50: 72 h treatment, CTG assay
[8] = tested on: BEAS-2B; settings: for BEAS-2B LD50: 48 h, MTT; for Therapeutic index, LD50 in BEAS-2B / MABA IC50: 48 h treatment, MTT assay
[9] = tested on: IMR-90; settings: for IMR-90 LD50: 48 h, MTT
[10] = tested on: HEK 293; settings: for HEK 293 LD50: 48 h, MTT; for Therapeutic index, LD50 in HEK 293 / MABA IC50: 48 h treatment, MTT assay
[11] = tested on: Caco-2 cells; settings: membrane integrity control, 5 μM; cited from earlier work
[12] = molecular target: T1, CYP3A4 (Homo sapiens, UniProt P08684); assay: CYP3A4 inhibition in human liver microsomes; assay type: in vitro ADME; settings: HLM
T1 construct: from tissue; host or cells: human liver microsomes

[13] = in vitro; settings: human, Caco-2, pH 7.4
[14] = molecular target: CYP2C9 (Homo sapiens, UniProt P11712); assay: CYP2C9 inhibition in human liver microsomes; settings: for % 4 OH-diclofenac activity: HLM
[15] = Mycobacterium tuberculosis, ERDMAN

T1 sequence (P08684 whole entry): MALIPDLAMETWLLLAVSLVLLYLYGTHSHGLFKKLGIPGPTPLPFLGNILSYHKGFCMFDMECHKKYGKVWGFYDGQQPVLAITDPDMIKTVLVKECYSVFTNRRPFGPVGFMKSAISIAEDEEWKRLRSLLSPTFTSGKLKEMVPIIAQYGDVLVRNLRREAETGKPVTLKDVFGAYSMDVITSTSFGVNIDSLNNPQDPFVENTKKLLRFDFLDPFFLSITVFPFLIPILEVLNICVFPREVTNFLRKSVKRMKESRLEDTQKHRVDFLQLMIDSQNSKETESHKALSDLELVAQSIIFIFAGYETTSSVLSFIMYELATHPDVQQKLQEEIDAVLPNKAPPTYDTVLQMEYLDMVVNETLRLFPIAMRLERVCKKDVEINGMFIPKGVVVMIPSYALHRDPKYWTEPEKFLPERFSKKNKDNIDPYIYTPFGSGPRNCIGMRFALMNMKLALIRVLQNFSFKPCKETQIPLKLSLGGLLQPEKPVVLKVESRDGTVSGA
Sequence of CYP2C9 (P11712 whole entry): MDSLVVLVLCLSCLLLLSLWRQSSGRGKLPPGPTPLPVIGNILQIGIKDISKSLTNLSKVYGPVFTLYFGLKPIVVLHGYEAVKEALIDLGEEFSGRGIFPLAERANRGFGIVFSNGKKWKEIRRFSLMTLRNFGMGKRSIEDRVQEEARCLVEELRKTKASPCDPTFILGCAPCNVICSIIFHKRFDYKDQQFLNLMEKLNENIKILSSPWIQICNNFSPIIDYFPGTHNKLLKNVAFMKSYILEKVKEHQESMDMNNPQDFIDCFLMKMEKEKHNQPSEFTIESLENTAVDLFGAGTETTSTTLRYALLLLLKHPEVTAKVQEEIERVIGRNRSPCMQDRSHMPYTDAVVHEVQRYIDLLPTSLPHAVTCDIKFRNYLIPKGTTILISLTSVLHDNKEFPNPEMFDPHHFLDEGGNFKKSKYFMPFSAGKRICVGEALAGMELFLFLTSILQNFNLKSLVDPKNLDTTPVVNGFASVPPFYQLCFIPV

| SMILES | IC50 [1, 15] [µM] | IC50 [1] [µM] | IC50 [2] [µM] | Mtb katG^FS CFU after 13 days, combination with INH [3] | Mtb katG^FS CFU after 13 days, compound alone vs control [3] | cytotoxicity for uninfected murine RAW 264.7 macrophages [5] | Calu-3 LD50 [7] [µM] | Therapeutic index, LD50 in Calu-3 / MABA IC50 [7] | BEAS-2B LD50 [8] [µM] | Therapeutic index, LD50 in BEAS-2B / MABA IC50 [8] | IMR-90 LD50 [9] [µM] | HEK 293 LD50 [10] [µM] | Therapeutic index, LD50 in HEK 293 / MABA IC50 [10] | % 1OH-midazolam activity ([12]; 1 μM compound) [%] | % 6OH-testosterone activity ([12]; 1 μM compound) [%] | % 1OH-midazolam activity ([12]; 10 μM compound) [%] | % 6OH-testosterone activity ([12]; 10 μM compound) [%] | % 1OH-midazolam activity ([12]; 100 μM compound) [%] | % 6OH-testosterone activity ([12]; 100 μM compound) [%] | IC50 [14] [µM] | other results |
| --- | --- | --- | --- | --- | --- | --- | --- | --- | --- | --- | --- | --- | --- | --- | --- | --- | --- | --- | --- | --- | --- |
| O=C(O)C1CSc2c(C3CC3)c(-c3cc(-c4ccc5ccccc5c4)no3)cc(=O)n21 (racemic) [Compound 17h, (±) 8-Cyclopropyl-7-(3-(naphthalen-2-yl)isoxazol-5-yl)-5-oxo-2,3-dihydro-5H-thiazolo[3,2-a]pyridine-3-carboxylic Acid] | 0.703 | 0.7 ± 0.05 | 3.47 ± 1.21 | below the input dose | no difference in CFU | not cytotoxic | >250 | >355 | 143.1 | 203.5 | 122.5 | 101.6 | 144.5 |  |  |  |  |  |  |  | inhibition of intracellular Mtb replication in macrophages [4]: inhibited intracellular mycobacteria at concentrations lower than C10; inhibition of OD600 of Mtb cultures in the presence of tyloxapol [6]: neither 17h nor 17j inhibited the OD600 of Mtb cultures |
| O=C(O)C1CSc2c(C3CC3)c(Cc3cccc4ccccc34)cc(=O)n21 (centres unmarked) [Compound C10, reference compound] | 14.4 | 14.4 | 8.28 ± 3.23 | did not inhibit the survival of Mtb katG^FS beyond the effect of INH alone | no difference in CFU | not cytotoxic | 160.4 | 11.1 | 146.2 | 10.1 | 147.1 | 151.7 | 10.5 |  |  |  |  |  |  |  | Therapeutic index, LD50 in IMR-90 / MABA IC50 ([9]; 48 h treatment, MTT assay): 10.1 |
| C[C@H](N[C@@H](CCc1ccccc1)C(=O)O)C(=O)N1CCC[C@H]1C(=O)O [enalaprilat] |  |  |  |  |  |  |  |  |  |  |  |  |  |  |  |  |  |  |  |  | Papp of enalaprilat for a tight monolayer [11]: < 1 × 10^–6 cm/s |
| CC(C)(C)c1ccc(-n2cc(-c3cc(=O)n4c(c3C3CC3)SCC4C(=O)O)nn2)cc1 (racemic) [Compound 15d, (±) 7-(1-(4-(tert-Butyl)phenyl)-1H-1,2,3-triazol-4-yl)-8-cyclopropyl-5-oxo-2,3-dihydro-5H-thiazolo[3,2-a]pyridine-3-carboxylic Acid] | 5.67 ± 0.82 |  |  |  |  |  |  |  |  |  |  |  |  | 102 ± 1.4 | 105 ± 1.0 | 95 ± 2.7 | 101 ± 3.9 | 67 ± 1.5 | 75 ± 1.9 | 1 to 10 | Papp A→B at 2 µM [13]: 8.8 nm/s; % 4 OH-diclofenac activity ([14]; 1 μM compound): 83 ± 4.6%; % 4 OH-diclofenac activity ([14]; 10 μM compound): 32.9 ± 1.0%; % 4 OH-diclofenac activity ([14]; 100 μM compound): 2.61 ± 0.29% |
| NNC(=O)c1ccncc1 [INH, isoniazid] |  |  |  |  |  |  |  |  |  |  |  |  |  |  |  |  |  |  |  |  | surviving Mtb katG^FS after 13 days of treatment [3]: 8.09 × 10^8 CFU/mL |
| CC(C)(C)c1ccc(-c2nnc(SCc3cc(=O)n4c(c3C3CC3)SCC4C(=O)O)o2)cc1 (racemic) [Compound 8f, (±) 7-(((5-(4-(tert-Butyl)phenyl)-1,3,4-oxadiazol-2-yl)thio)methyl)-8-cyclopropyl-5-oxo-2,3-dihydro-5H-thiazolo[3,2-a]pyridine-3-carboxylic Acid] | 6.2 | 6.19 ± 0.67 |  |  |  |  |  |  |  |  |  |  |  | 108 ± 4.1 | 98 ± 4.0 | 117 ± 1.4 | 94 ± 5.8 | 84 ± 5.0 | 60 ± 1.9 | 10 to 100 | Papp A→B [13]: 33 nm/s; % 4 OH-diclofenac activity ([14]; 1 μM compound): 100 ± 2.7%; % 4 OH-diclofenac activity ([14]; 10 μM compound): 93 ± 6.7%; % 4 OH-diclofenac activity ([14]; 100 μM compound): 31 ± 3.6% |
